Measurements as given in publication PMC6008883, “Identification of Peptide Antagonists to Thioredoxin Glutathione Reductase of Schistosoma japonicum” (BioMed Research International, 2018).

Columns and labels:
[1] = tested on: GR of SjTGR (thioredoxin glutathione reductase of Schistosoma japonicum); assay: Inhibition of GR activity of SjTGR; format: biochemical; settings: phage clone, 10^11 pfu; SjTGR 48 nM; vs activity of SjTGR without phage; repeated three times; P<0.01 vs phage library for JIPDys1, JIPDys2
Experimental: To assess the inhibitory action of phages, the activities of TrxR, GR, and glutaredoxin (Grx) of SjTGR were assayed as described in [21]. […] system, phage library was used as negative phage control, and the effect of phages on the activity of SjTGR was expressed as percentage inhibition: Inhibition percentage = (activity of SjTGR – activity of SjTGR with isolated phage)/activity of SjTGR. The experiment was repeated three times.
(§1) The activities of TrxR, GR, and Grx of SjTGR were assayed with different concentrations (0.5 μM, 1 μM, and 2 μM) of the synthesized peptide JIPDys1 to determine the 50% inhibitory concentration (IC50), and the same amount of PBS was added to the system as control. The experiment was repeated three times. The IC50 values were calculated by curve fitting using the SPSS 13.0 software.
(§2) All data are given as the mean ± standard deviation (SD). The activities of TrxR, GR, and Grx of SjTGR (absorbance/S (ΔA/S)) with JIPDys1, JIPDys2, JIPDys3, and JIPDys4 were statistically compared with the negative phage control (phage library) using two-tailed Student's t-tests. The activities of TrxR, GR, and Grx of SjTGR (absorbance/S (ΔA/S)) with the synthesized peptide were statistically compared with PBS control using two-tailed Student's t-tests, too. SPSS 13.0 was used for the statistical analyses. Differences between mean values were considered to be significant at the level of 5%.

[2] = tested on: TrxR of SjTGR (thioredoxin glutathione reductase of Schistosoma japonicum); assay: Inhibition of TrxR activity of SjTGR; format: biochemical; settings: phage clone, 10^11 pfu; SjTGR 48 nM; vs activity of SjTGR without phage; repeated three times; P<0.01 vs phage library for JIPDys1, JIPDys2, JIPDys3
Experimental: To assess the inhibitory action of phages, the activities of TrxR, GR, and glutaredoxin (Grx) of SjTGR were assayed as described in [21]. […], phage library was used as negative phage control, and the effect of phages on the activity of SjTGR was expressed as percentage inhibition: Inhibition percentage = (activity of SjTGR – activity of SjTGR with isolated phage)/activity of SjTGR. The experiment was repeated three times.
as §1, §2

[3] = tested on: Grx of SjTGR (thioredoxin glutathione reductase of Schistosoma japonicum); assay: Inhibition of Grx activity of SjTGR; format: biochemical; settings: phage clone, 10^11 pfu; SjTGR 48 nM; vs activity of SjTGR without phage; repeated three times; P<0.01 vs phage library for JIPDys1, JIPDys3
Experimental: (§3) To assess the inhibitory action of phages, the activities of TrxR, GR, and glutaredoxin (Grx) of SjTGR were assayed as described in [21]. 10 μl ([…]) of phage solution was added to the reaction system, phage library was used as negative phage control, and the effect of phages on the activity of SjTGR was expressed as percentage inhibition: Inhibition percentage = (activity of SjTGR – activity of SjTGR with isolated phage)/activity of SjTGR. The experiment was repeated three times.
as §1, §2

[4] = tested on: SjTGR; assay: Phage binding to recombinant SjTGR by ELISA; set-up: species or system Schistosoma japonicum; settings: mean of triplicates; for Binding to SjTGR (ELISA OD450nm): phage 1×10^12 pfu/ml, HRP-conjugated anti-M13 antibody, TMB, positive if OD450nm 2.1 times above negative control, binding decreased with decreasing titers
Experimental: Phage clones were amplified according to the manual. A 96-well plate was coated with 100 μl of SjTGR solution (10 μg/ml, 0.1 M NaHCO3, pH 8.6) overnight at 4°C. After blocking with PBS containing 5% milk powder at rt for 1 h, 100 μl of phage solution with titers of 1 x 10^12, 2.5 x 10^11, 6 x 10^10, 1.5 x 10^10, and 3.75 x 10^9 pfu/ml was used per well, respectively. The phage library was set as the negative phage control. Following an incubation at 37°C for 2 h and six washes with TBST (0.5% Tween-20), 200 μl of diluted HRP-conjugated anti-M13 monoclonal antibody solution was added for 1 h at rt. Following six washes with TBST, 100 μl of substrate TMB solution was added for 10 minutes at rt. 50 μl of 2 M sulfuric acid solution (H2SO4) was added to terminate the reaction and absorbance at 450nm was measured. OD450nm values 2.1 times above the negative control value were considered positive.

[5] = tested on: SjTGR; assay: Inhibition of SjTGR enzyme activity (TrxR, GR and Grx overall); format: biochemical, Schistosoma japonicum; settings: JIPDys1 from phage screening
Experimental: as §3, §1

Sequence | Percentage of inhibition of GR [1] [%] | Percentage of inhibition of TrxR [2] [%] | Percentage of inhibition of Grx [3] [%] | Binding to SjTGR (ELISA OD450nm) [4] | Inhibition of SjTGR activity [5] | Binding capacity compared with the other phages ([4]; ELISA, phage titers 3.75 x 10^9 to 1.0 x 10^12 pfu/ml)
KHMHWHPPALNT [JIPDys4, M13 phage clone from Ph.D.-12 library displaying peptide …] | 1.50 | 0.73 | 1.23 | bound to SjTGR |  | 
LHAETRSAMHRT [JIPDys2, M13 phage clone from Ph.D.-12 library displaying peptide …] | 69.43 | 45.24 | 25.64 | bound to SjTGR |  | 
WPHNWWPHFKVK [JIPDys1, M13 phage clone from Ph.D.-12 library displaying peptide …] | 80.80 | 59.04 | 53.56 | bound to SjTGR | more than 50% | strongest binding capacity among those phages
YTMPSLTLYAMG [JIPDys3, M13 phage clone from Ph.D.-12 library displaying peptide …] | 20.88 | 54.72 | 43.02 | bound to SjTGR |  | 
